Experimental data taken from the NIST ThermoML archive (doi:10.1021/acs.jced.9b00064).
Numbers after ± are expanded uncertainties.

Experiments:
[1] = Crystal; DSC
[2] = Molar enthalpy of transition or fusion; settings: Crystal; DSC

Question: With `c1ccc2ccccc2c1` [naphthalene] as the compound, how does the Triple point temperature [1] read?
Answer: Its Triple point temperature is 355.04 ± 2.1 K.

Question: What about the “Molar enthalpy of transition or fusion” value [2] of the same compound?
Answer: The value was 20.9 ± 2 kJ/mol.
